Experiment: Solubilization of ziprasidone mesylate in concentrated aqueous SBECD solution (concentration, HPLC potency)
Assay type: physicochemical
Method: This particular example employs a high concentration of SBECD to form an aqueous solution of ziprasidone at about 80 mgA/ml with about 56% SBECD. To facilitate drug dissolution, a pre-weighed amount of SBECD (gram weight SBECD equivalent to ml of depot formulation being prepared) was dissolved in water by heating in a water bath at 50° C. Ziprasidone mesylate was added in about 50 mg increments while heat was supplied to maintain the system at 50-60° C. A total of 572.99 mg Ziprasidone mesylate was added to 3 ml of 100% SBECD solution resulting in formation of 140 mgA/ml (191 mg/ml) clear viscous solution. The above solution was cooled to room temperature, and the solution remained clear for 2 weeks. Due to volume expansion, the final concentration of ziprasidone was about 80 mgA/ml with 56% cyclodextrin.
The stock solution was prepared using the same method as described above, however due to the higher solution volume (20 ml), the dissolution time was much longer (over 4 hours) even though micronized ziprasidone mesylate was used. During compounding, significant volume expansion was noted. To correct for the volume expansion, the specific gravity of the solution was determined to be 1.188 gm/ml. The volume of water used to prepare this solution was 20 ml, however, the final volume of the solution was 36.6 ml, and the weight of the solution was 43.5 gm. Therefore, taking into consideration 83% volume expansion, the corrected concentrations of drug and SBECD in this solution are 77 mgA/ml and 55% w/v, respectively.
The extent of solubilization was further confirmed by preparation of 82 mgA/ml ziprasidone solution with 59% SBECD using the same method. Viscosity was greater than 160 cps.

With `O=C1Cc2cc(CCN3CCN(c4nsc5ccccc45)CC3)c(Cl)cc2N1` [ziprasidone] the “corrected concentration of drug in solution” value (55% w/v SBECD, corrected for 83% volume expansion, scaled-up stock solution) was 77 mgA/ml, the “potency of solution by HPLC potency method” value (scaled-up stock solution, 55% w/v SBECD) was 75 mgA/ml and the “final concentration of ziprasidone in clear aqueous solution” value (with 56% cyclodextrin (SBECD), after volume expansion) was “about 80 mgA/ml”.
